# Laboratory results from PubChem BioAssay (NCI).
# Several values for one entry are separate records, joined by “and”; a condition that tells them apart may be missing. Equal entries are not always repeated.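 Exposure lasted 48 hours, with cells grown in 96-well plates and compounds tested at five concentrations. The concentration for 50% growth inhibition is given as GI50. TGI is the concentration that stops growth completely.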
# Legend:
# Experiment in all cases: NCI-60 cell line screen, 48 h
# [1] = tested on: ACHN renal
# [2] = tested on: DU-145 prostate
# [3] = tested on: HCT-116 colon
# [4] = tested on: LOX IMVI melanoma
# [5] = tested on: OVCAR-3 ovarian
# [6] = tested on: SF-268 CNS
# [7] = tested on: SR leukemia
# [8] = tested on: SW-620 colon
# [9] = tested on: UACC-62 melanoma
# [10] = tested on: UO-31 renal
Structure (SMILES),GI50 [1],TGI [1],GI50 [2],TGI [2],GI50 [3],TGI [3],GI50 [4],TGI [4],GI50 [5],TGI [5],GI50 [6],TGI [6],GI50 [7],TGI [7],GI50 [8],TGI [8],GI50 [9],TGI [9],GI50 [10],TGI [10]
CC(C)(C)n1cc(-c2ccnc(NCCCNS(=O)(=O)c3cccc4ccccc34)c2)c(-c2cccc(O)c2)n1,2.7 µM,7.25 µM,2.65 µM,7.45 µM,1.4 µM,2.89 µM,1.73 µM,3.28 µM,2.06 µM,4.22 µM,2.77 µM,8.02 µM,1.4 µM,5.65 µM,1.81 µM,3.62 µM,1.67 µM,3.28 µM,2.26 µM,7.97 µM
CC1CCc2c(C(=O)Nc3ncc(Cc4cccc([N+](=O)[O-])c4)s3)csc2C1 (configuration not stated),0.937 µM,> 100 µM,1.05 µM,> 100 µM,0.468 µM,> 100 µM,0.48 µM,> 100 µM,0.391 µM,2.25 µM,1.53 µM,> 100 µM,0.176 µM,> 100 µM,0.414 µM,> 100 µM,0.373 µM,> 100 µM,0.815 µM,> 100 µM
CN(N=O)c1ccc(/C=C/c2ccnc3ccccc23)cc1,,> 100 µM,,> 100 µM,,> 100 µM,,> 100 µM,,> 100 µM,,> 100 µM,,> 100 µM,,> 100 µM,,> 100 µM,,> 100 µM
CN1CCN(Cc2ccc(NC(=O)c3cncc(C#Cc4c(N)ncc5ccccc45)c3)cc2C(F)(F)F)CC1,0.569 µM,1.17 µM,0.716 µM,1.39 µM,0.257 µM,0.892 µM,0.348 µM,0.979 µM,0.817 µM,1.53 µM,0.723 µM,1.56 µM,0.259 µM,3.7 µM,0.185 µM,0.72 µM,0.791 µM,1.55 µM,0.541 µM,1.16 µM
COc1ccc2c(c1O)[C@@]13CCCC=C1[C@@H](C2)N(C)CC3,,> 100 µM,,> 100 µM,,> 100 µM,,> 100 µM,,> 100 µM,,> 100 µM,,81.5 µM,,> 100 µM,,> 100 µM,,> 100 µM
COc1cc(/C=N\Nc2ccccc2)ccc1OC(=O)c1ccccc1,0.675 µM,> 100 µM,39.4 µM,> 100 µM,5.76 µM,> 100 µM,0.296 µM,4.57 µM,4.19 µM,> 68.9 µM,4.54 µM,> 100 µM,16.5 µM,> 100 µM,0.736 µM,19.9 µM,0.311 µM,4.47 µM,0.792 µM,> 40.2 µM
CC[C@H](C)[C@H](NC(=O)CN(C)C)C(=O)N(C)[C@H](C[C@@H](OC(C)=O)c1nc(C(=O)NC23C4C5C2C2C3C4C52C(=O)OC)cs1)C(C)C (some centres not stated),2.25 µM,> 33.2 µM,0.176 µM,> 33.2 µM,0.201 µM,> 33.2 µM,0.321 µM,> 33.2 µM,0.113 µM,1.31 µM,0.668 µM,> 33.2 µM,0.038 µM,> 33.2 µM,0.226 µM,> 33.2 µM,0.19 µM,> 33.2 µM,3.6 µM,> 33.2 µM
COc1ccc(/C=C\c2cc(OC)c(OC)c(OC)c2)cc1NC(=O)/C=C/c1cc(OC)c(OC)c(OC)c1,6.76 µM,> 100 µM,5.01 µM,> 100 µM,3.83 µM,> 100 µM,4.9 µM,> 100 µM,5.62 µM,> 100 µM,> 100 µM,> 100 µM,0.854 µM,> 100 µM,5.2 µM,> 100 µM,2.8 µM,> 100 µM,2.64 µM,> 100 µM
N#Cc1cnn(C(=O)c2nn(-c3ccc(Cl)cc3)cc2O)c1N,0.322 µM,12.5 µM,0.57 µM,28.4 µM,0.26 µM,10.9 µM,0.434 µM,12 µM,0.545 µM,8.44 µM,0.439 µM,23.8 µM,0.278 µM,0.983 µM,0.521 µM,21 µM,0.303 µM,2.22 µM,0.292 µM,5.81 µM
COC(=O)c1sc(-n2cnc3cc(OC)c(OC)cc32)cc1OCc1ccccc1C(F)(F)F,> 25 µM,> 25 µM,> 25 µM,> 25 µM,> 21.8 µM,> 25 µM,> 25 µM,> 25 µM,> 25 µM,> 25 µM,17.1 µM,> 25 µM,> 25 µM,> 25 µM,> 25 µM,> 25 µM,> 25 µM,> 25 µM,> 25 µM,> 25 µM
O=C1OC(c2ccccc2)=N/C1=C\c1ccccc1,,> 100 µM,,> 100 µM,,> 100 µM,,51.8 µM and 31.6 µM,,> 100 µM,14.5 µM and 34.8 µM,82.5 µM and > 100 µM,,73.4 µM and > 100 µM,> 100 µM and 35.5 µM,> 100 µM,,> 100 µM,,> 100 µM
Nc1nc(SCC#CCCl)c2[nH]cnc2n1,3.7 µM,15 µM,4.39 µM,15.9 µM,3.86 µM,15.2 µM,2.97 µM,11.8 µM,3.27 µM,10.9 µM,3.93 µM,18.6 µM,3.15 µM,18.9 µM,4.1 µM,17.5 µM,5.46 µM,18.1 µM,2.39 µM,11.5 µM
COc1cc(/C=N/NC(=O)c2cnn3c2NC(c2ccccc2)C3)ccc1OCc1ccccc1 (configuration not stated),0.903 µM,6.99 µM,1.47 µM,6.4 µM,1.18 µM,11.7 µM,0.573 µM,2.79 µM,0.331 µM,1.34 µM,2.42 µM,16.7 µM,0.214 µM,5.05 µM,0.569 µM,2.76 µM,0.679 µM,7.14 µM,1.28 µM,8.87 µM
